Data as given in patent publication US20110230478A1 (Bayer ScienceCrop AG, priority 2008, published 2011).
Where a name gives a salt, the structure may show the parent alone.

Assay: logP by HPLC on reversed-phase columns (C 18), EEC Directive 79/831 Annex V.A8
Type: physicochemical
Settings: LC-MS, pH 2.7, 0.1% aqueous formic acid and acetonitrile

Row | SMILES | logP [b]
1 | COCC(C)Nc1nc(Nc2ccc(OC)nc2)ncc1Cl (stereo not drawn) [II-2] | 1.39[b]

Same assay, conditions: method marker [a]

Row | SMILES | logP
2 | CS(=O)(=O)c1ccc(Nc2ncc(Cl)c(NC3CCCCC3)n2)cc1 [Example 267] | 2.54[a]

Same assay, conditions: method marker [a]; footnote not given

Row | SMILES | logP
3 | COCCNc1nc(Nc2ccc(OC(C)C)cc2)ncc1Cl [Example 12] | 1.78[a]
4 | CCC(CO)Nc1nc(Nc2ccc(N3CCN(C(=O)OC(C)(C)C)CC3)cc2)ncc1Cl (stereo not drawn) [Example 23] | 2.02[a]
5 | COCC(C)Nc1nc(Nc2cc(OC)cc(OC)c2)ncc1Cl (stereo not drawn) [Example 14] | 1.94[a]
6 | COCC(C)Nc1nc(Nc2ccccc2)ncc1C(F)(F)F (stereo not drawn) [Example 25] | 2.96[a];
7 | Cl.OCCNc1nc(Nc2ccccc2)ncc1Cl [Example 53] | 0.86[a]
8 | CC(C)c1ccc(Nc2ncc(Cl)c(NCCO)n2)cc1.Cl [Example 58] | 1.6[a]
9 | CCC(CO)Nc1nc(Nc2ccc(S(=O)(=O)N(C)C)cc2)ncc1Cl (stereo not drawn) [Example 22] | 1.83[a]
10 | COCCNc1nc(Nc2cccc(Cl)c2)ncc1Cl [Example 2] | 2.13[a];
11 | CCN(CC)c1nc(Nc2ccccc2)ncc1Cl [Example 60] | 2.29[a]
12 | C=CCNc1nc(Nc2ccccc2)ncc1Cl.Cl [Example 66] | 1.68[a]
13 | CC(=O)c1cccc(Nc2ncc(Cl)c(NC(C)(C)C)n2)c1 [Example 49] | 2.15[a]
14 | COCC(C)Nc1nc(Nc2cccc(S(=O)(=O)N(C)C)c2)ncc1Cl (stereo not drawn) [Example 31] | 2.02[a];
15 | CC(C)(C)Nc1nc(Nc2ccccc2)ncc1Cl [Example 34] | 2.17[a]
16 | CCC(C)Nc1nc(Nc2ccccc2)ncc1Cl.Cl (stereo not drawn) [Example 65] | 2.04[a]

Same assay, conditions: method marker [b] (compound 257: pH2.7)

Row | SMILES | logP
17 | Clc1cnc(Nc2ccccc2)nc1NC1CCCCC1 [Example 259] | 2.53[b]
18 | CC(=O)Cc1cccc(Nc2ncc(Cl)c(NC3CCCC3)n2)c1 [Example 255] | 2.01[b]
19 | CC(C)Nc1nc(Nc2cccc(CS(=O)(=O)NCc3ccccc3)c2)ncc1Cl [Example 251] | 2.18[b]
20 | CC(C)Nc1nc(Nc2cccc(C=O)c2)ncc1Cl [Example 252] | 1.86[b]
21 | CSCCNc1nc(Nc2ccccc2)ncc1Cl [Example 293] | 1.75[b]
22 | CC(=O)c1cccc(Nc2ncc(Cl)c(NC3CCCCC3)n2)c1.Cl [Example 249] | 2.53[b]
23 | COc1cc(Nc2ncc(Cl)c(NC3CCCCC3)n2)cc(OC)c1 [Example 260] | 2.77[b]
24 | CC(C)Nc1nc(Nc2cccc(CC#N)c2)ncc1Br [Example 246] | 1.84[b]
25 | C=CCCNc1nc(Nc2ccccc2)ncc1Cl [Example 294] | 1.87[b]
26 | Cc1cnc(Nc2ccccc2)nc1NC(C)(C)C [Example 297] | 1.48[b]
27 | CCCCN(C)c1nc(Nc2cccc(SC)c2)ncc1Cl [Example 282] | 3.9[b]

Same assay, conditions: method marker [b]; footnote not given; compound 68 value matches logP (pH 2.3)

Row | SMILES | logP
28 | COCC(C)Nc1nc(Nc2ccc(N(C)C(C)=O)cc2)ncc1Cl (stereo not drawn) [Example 99] | 1.48[b]
29 | COCC(C)Nc1nc(Nc2cccc(OC)c2)ncc1Cl (stereo not drawn) [Example 85] | 1.78[b]
30 | COCC(C)Nc1nc(Nc2ccccc2)ncc1C(F)(F)F (stereo not drawn) [Example 25] | 2.74[b]
31 | COCC(C)Nc1nc(Nc2ccc(N(C)C(C)=O)cc2)ncc1Br (stereo not drawn) [Example 119] | 1.56[b]
32 | COCC(C)Nc1nc(Nc2ccc3c(c2)OCO3)ncc1Br (stereo not drawn) [Example 117] | 1.64[b]
33 | CN(C)c1nc(Nc2ccccc2)ncc1C#N [Example 44] | 2.36[b]
34 | CC(C)Nc1nc(Nc2cccc(CN3CCN(C)C3=O)c2)ncc1Cl [Example 48] | 1.54[b]
35 | COCCNc1nc(Nc2cccc(Cl)c2)ncc1Cl [Example 2] | 2.13[b]
36 | COCC(C)Nc1nc(Nc2ccc(-c3cscn3)cc2)ncc1Cl (stereo not drawn) [Example 90] | 1.87[b]
37 | COCC(C)Nc1nc(Nc2cc(Cl)cc(Cl)c2)ncc1Cl (stereo not drawn) [Example 94] | 4.08[b]
38 | COCC(C)Nc1nc(Nc2cccc(CC(=O)OC)c2)ncc1Cl (stereo not drawn) [Example 93] | 1.75[b]
39 | COCC(C)Nc1nc(Nc2ccc(C(F)(F)F)cc2)ncc1Cl (stereo not drawn) [Example 82] | 3.22[b]
40 | COCC(C)Nc1nc(Nc2ccc(SC)c(Cl)c2)ncc1Br (stereo not drawn) [Example 111] | 2.99[b]
41 | CCC(=O)c1ccc(Nc2ncc(Br)c(NC(C)COC)n2)cc1 (stereo not drawn) [Example 78] | 2.57[b]
42 | COCC(C)Nc1nc(Nc2cccc(S(=O)(=O)N(C)C)c2)ncc1Cl (stereo not drawn) [Example 31] | 2.18[b]
43 | COCC(C)Nc1nc(Nc2ccc3sc(C)nc3c2)ncc1Cl (stereo not drawn) [Example 105] | 1.75[b]
44 | COCC(C)Nc1nc(Nc2ccc(OC(F)(F)F)c(Cl)c2)ncc1Cl (stereo not drawn) [Example 98] | 3.99[b]

Same assay, conditions: method marker [c]

Row | SMILES | logP
45 | CC(C)Nc1nc(Nc2cccc(CS(=O)(=O)NCc3ccccc3)c2)ncc1Cl [Example 251] | 3.35[c];
46 | CC(C)Nc1nc(Nc2cccc(C=O)c2)ncc1Cl [Example 252] | 3.06[c];
47 | CC(C)Nc1nc(Nc2cccc(CC#N)c2)ncc1Br [Example 246] | 3.13[c];

Same assay, conditions: method marker [c]; footnote not given

Row | SMILES | logP
48 | COCC(C)Nc1nc(Nc2ccccc2)ncc1C(F)(F)F (stereo not drawn) [Example 25] | 3.52[c];
49 | CC(C)Nc1nc(Nc2cccc(CN3CCN(C)C3=O)c2)ncc1Cl [Example 48] | 2.56[c];

Same assay, conditions: pH 2.3, logP [a]

Row | SMILES | chromatographic logP
50 | CSCC(C)(C)Nc1nc(Cl)ncc1Cl [Example V-7, 2,5-dichloro-N-[2-methyl-1-(methylsulphanyl)propan-2-yl]pyrimidine-4-amine] | 3.47
51 | Clc1ncc(Cl)c(NC2CCCC2)n1 [Example V-12, 2,5-dichloro-N-(cyclopentyl)pyrimidine-4-amine] | 3.16
52 | N#CCNc1nc(Cl)ncc1Cl [Example V-8, [(2,5-dichloropyrimidin-4-yl)amino]acetonitrile] | 1.27

Same assay, conditions: reversed-phase HPLC column (C 18), method marker [c]; footnote not given; read-out: logP

Row | SMILES | chromatographic logP
53 | COCC(C)Nc1nc(Nc2ccc(C(=O)OC)cc2)ncc1Cl (stereo not drawn) [Example 38, Methyl 4-({5-chloro-4-[(1-methoxypropan-2-yl)amino]pyrimidin-2-yl}amino)benzene-carboxylate hydrochloride] | 3.05

Same assay, conditions: reversed-phase HPLC column (C 18), pH 2.3, method marker [a]; footnote not given; read-out: logP

Row | SMILES | chromatographic logP
54 | COCC(C)Nc1nc(Nc2ccc(C(=O)OC)cc2)ncc1Cl (stereo not drawn) [Example 38, Methyl 4-({5-chloro-4-[(1-methoxypropan-2-yl)amino]pyrimidin-2-yl}amino)benzene-carboxylate hydrochloride] | 2.31

Same assay, conditions: reversed-phase HPLC column (C 18), pH 2.3, pH 2.3, 0.1% aqueous phosphoric acid and acetonitrile; read-out: logP [a]

Row | SMILES | chromatographic logP
55 | COCC(C)Nc1nc(Nc2ccc(C(=O)OC)cc2)ncc1Cl (stereo not drawn) [Example 38, Methyl 4-({5-chloro-4-[(1-methoxypropan-2-yl)amino]pyrimidin-2-yl}amino)benzene-carboxylate hydrochloride] | 2.31
56 | CCC(=O)N(C)c1cccc(N)c1 [IV-9, N-(3-aminophenyl)-N-methylpropanamide] | 0.63
57 | CCC(C)CNc1nc(Cl)ncc1Cl (stereo not drawn) [Example V-24, 2,5-dichloro-N-(2-methylbutyl)pyrimidine-4-amine] | 3.42
58 | CC(C)N(C)S(=O)(=O)Cc1cccc([N+](=O)[O-])c1 [IV-2, N-methyl-N-(propan-2-yl)-1-(3-nitrophenyl)methanesulphonamide] | 2.35
59 | CC(C)CNc1nc(Cl)ncc1Cl [Example V-29, 2,5-dichloro-N-(2-methylpropyl)pyrimidine-4-amine] | 2.93
60 | CCN(C)S(=O)(=O)Cc1cccc([N+](=O)[O-])c1 [IV-1, N-Ethyl-N-methyl-1-(3-nitrophenyl)methanesulphonamide] | 2.05
61 | CC(NS(=O)(=O)Cc1cccc(N)c1)c1ccccc1 (stereo not drawn) [IV-7, 1-(3-aminophenyl)-N-(1-phenylethyl)methanesulphonamide] | 1.53
62 | CC(C)(C)CNc1nc(Cl)ncc1Cl [Example V-32, 2,5-dichloro-N-(2,2-dimethylpropyl)pyrimidine-4-amine] | 3.44
63 | CC(C)N(C)S(=O)(=O)Cc1cccc(N)c1 [IV-6, 1-(3-aminophenyl)-N-methyl-N-(propan-2-yl)methanesulphonamide] | 1.08
64 | CCN(c1nc(Cl)ncc1Cl)C(C)C [Example V-30, 2,5-dichloro-N-ethyl-N-isopropylpyrimidine-4-amine] | 3.8

Same assay, conditions: values marked [a]; pH 2.3

Row | SMILES | logP
65 | CC(CO)Nc1nc(Nc2ccccc2)ncc1Cl (stereo not drawn) [Example 223] | 1.04[a]

Same assay, conditions: values marked [b]; footnote not given

Row | SMILES | logP
66 | CC(C)Nc1nc(Nc2ccc(NC(=O)C(C)C)cc2)ncc1Cl [Example 209] | 1.61[b]
67 | COCC(C)Nc1nc(Nc2ccc(NC(=O)C(C)C)cc2)ncc1Cl (stereo not drawn) [Example 169] | 1.59[b]
68 | CC(C)Nc1nc(Nc2ccc(C#N)cc2)ncc1Cl [Example 184] | 2.46[b]
69 | CCOC(=O)Nc1ccc(Nc2ncc(Cl)c(NC(C)C)n2)cc1 [Example 202] | 1.66[b]
70 | CNC(=O)Oc1cccc(Nc2ncc(Cl)c(NC(C)COC)n2)c1 (racemic) [Example 144] | 1.48[b]
71 | CC(C)Nc1nc(Nc2cccc(CS(=O)(=O)N(C)C(C)C)c2)ncc1Cl [Example 242] | 2.18[b]
72 | COCC(C)Nc1nc(Nc2cccc(NC(=O)C(C)(C)CF)c2)ncc1Cl (stereo not drawn) [Example 166] | 1.83[b]
73 | COCC(C)Nc1nc(Nc2ccc(NC(=O)C(C)(C)C)cc2)ncc1Cl (racemic) [Example 146] | 1.78[b]
74 | C=CCNC(=O)c1ccc(Nc2ncc(Br)c(NC(C)COC)n2)cc1 (racemic) [Example 128] | 1.75[b]
75 | CC(C)Nc1nc(Nc2cccc(NC(=O)C3(C)CC3)c2)ncc1Cl [Example 207] | 1.78[b]
76 | CC(=O)Nc1ccc(Nc2ncc(Cl)c(NC(C)C)n2)cc1 [Example 189] | 1.32[b]
77 | CNc1nc(Nc2cccc(CC#N)c2)ncc1Cl [Example 235] | 1.1[b]
78 | CNC(=O)c1cccc(Nc2ncc(Cl)c(NC(C)COC)n2)c1 (racemic) [Example 142] | 1.32[b]
79 | COCC(C)Nc1nc(Nc2ccc(C)c(NC(C)=O)c2)ncc1Cl (stereo not drawn) [Example 167] | 1.37[b]
80 | COc1ccc(Nc2ncc(Cl)c(NC(C)C)n2)cc1 [Example 183] | 1.63[b]
81 | COCC(C)Nc1nc(Nc2cccc(NC(=O)Oc3ccccc3)c2)ncc1Cl (stereo not drawn) [Example 165] | 2.23[b]
82 | Cc1cccc(Nc2ncc(Cl)c(NC(C)C)n2)c1 [Example 229] | 2[b]
83 | CCOC(=O)Nc1cccc(Nc2ncc(Br)c(NC(C)COC)n2)c1 (racemic) [Example 129] | 1.87[b]
84 | COCC(C)Nc1nc(Nc2ccc(N(C(=O)C(F)(F)F)C3CC3)cc2)ncc1Cl (stereo not drawn) [Example 164] | 2.55[b]
85 | COC(=O)Nc1ccc(Nc2ncc(Cl)c(NC(C)C)n2)cc1 [Example 201] | 1.53[b]
86 | COc1cccc(Nc2ncc(Cl)c(NC(C)C)n2)c1 [Example 182] | 1.86[b]
87 | CC(=O)Nc1ccc(Nc2ncc(Cl)c(NC(C)C)n2)cc1Cl [Example 190] | 1.61[b]
88 | CNC(=O)Oc1cccc(Nc2ncc(Br)c(NC(C)COC)n2)c1 (racemic) [Example 130] | 1.56[b]

Same assay, conditions: values marked [c]; footnote not given

Row | SMILES | logP
89 | CC(C)Nc1nc(Nc2cccc(CS(=O)(=O)N(C)C(C)C)c2)ncc1Cl [Example 242] | 3.44[c];
90 | Cc1cccc(Nc2ncc(Cl)c(NC(C)C)n2)c1 [Example 229] | 3.84[c];
